In patent US9669014B2, “Small molecule inhibitors of superoxide dismutase expression” (Northwestern University, priority 2014, dated 2017):
≈ marks a conversion by molar mass, not a printed value. Entries after “also recorded” stand apart in the source; their conditions may differ. Read-outs that look alike come from different tables or passages of the source. Values belong to the molecule of their own block, whether it stands above or below them.

Experiments:
[1] = tested on: G93A-SOD1 expression; experiment: SOD1 protein expression in cultured fibroblasts from G93A-SOD1 mice (ELISA); assay type: cell-based, mouse; conditions: for Effect on SOD1 expression (in words) / IC50 / Shape of dose-response curve for SOD1 expression: G93A-SOD1 mouse fibroblasts; for activity at 10 µM: Mus musculus, 48 h, 10 μM compound
Experimental: Fibroblasts were treated with the title compounds at the indicated concentration for 48 hr. Cells were washed, lysed, and SOD1 levels measured by ELISA. SOD1 levels are normalized to the total protein in the lysate.
Thus, we used cultured fibroblasts from the G93A-SOD1 transgenic mouse to screen GSK3β protein kinase inhibitors (FIG. 1) for their effects on SOD1 expression. The transgene construct contains the human SOD1 promoter so that cellular signaling processes that affect transcription of the gene will be fully functional. We chose a structurally diverse group of compounds including some natural products.

[2] = tested on: cell toxicity; conditions: cited from earlier work
[3] = tested on: CDK5, CDK2, CDK1, CDK4; conditions: cited from earlier work
[4] = tested on: cell toxicity; experiment: Cell toxicity; assay type: cell-based
[5] = molecular target: GSK3β (Homo sapiens, UniProt P49841); conditions: published values; cited from earlier work
GSK3β, sequence (P49841 whole entry, species assumed): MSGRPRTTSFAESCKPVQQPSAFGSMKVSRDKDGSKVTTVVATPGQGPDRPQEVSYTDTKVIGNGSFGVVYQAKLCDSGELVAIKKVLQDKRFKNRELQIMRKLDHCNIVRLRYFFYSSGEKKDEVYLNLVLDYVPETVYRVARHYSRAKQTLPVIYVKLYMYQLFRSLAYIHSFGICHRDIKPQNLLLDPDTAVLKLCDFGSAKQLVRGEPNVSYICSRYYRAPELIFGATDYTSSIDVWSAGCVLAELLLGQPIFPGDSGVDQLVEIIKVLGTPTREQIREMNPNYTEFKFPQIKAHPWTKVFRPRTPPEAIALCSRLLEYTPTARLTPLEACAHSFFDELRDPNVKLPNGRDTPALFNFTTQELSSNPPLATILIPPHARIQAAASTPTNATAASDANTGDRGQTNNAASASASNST

[6] = tested on: SOD1 mRNA; experiment: SOD1 mRNA in G93A-SOD1 mouse fibroblasts; assay type: cell-based
Text: FIG. 3. […] A. Dose-dependent changes in G93A-SOD1 protein expression and B. SOD1 mRNA (n=3). Data are normalized to GAPDH activity (protein) or mRNA. Error bars are SEM.

[7] = Distribution in tissues of nontransgenic mice after injection; assay type: in vivo, mouse; conditions: for Concentration (μM), Brain / Concentration (μM), Serum / Concentration (μM), Spinal cord: n = 2; for CNS distribution and persistence (in words): nontransgenic mice; for concentration at 2 h / concentration at 4 h / concentration at 24 h: mouse, other: injection, 10 mg/kg injection
Experimental: The blood brain barrier permeability of GSK3B-II was determined in nontransgenic mice. […] The peak and sustained concentrations found in the spinal cord and brain indicate that the 20 mg/kg dose puts the drug into the inhibitory range found in the cellular assays.
(§1) We also tested compound NUCC-434 for distribution in non-transgenic mice. […] While there are a multitude of methods for improving aqueous solubility of drugs (32) we chose a relatively simple route using a cyclodextrin based carrier (Sulfo-butylether beta-cyclodextrin, Captisol) to solubilize the drug in aqueous solution. Using the cyclodextrin carrier, we were able to solubilize NUCC-434 to 2 mg/mL in water and deliver 10 mg/kg to nontransgenic mice for pharmacokinetics. […] However, the distribution dynamics are different in the presence of the cyclodextrin which appears to slow uptake into the CNS as the peak drug concentration was delayed (Table 4). Such changes in distribution dynamics using cyclodextrins have not been studied in detail.

[8] = tested on: SOD1; experiment: SOD1 protein in CNS tissues of treated G93A-SOD1 mice (ELISA); assay type: in vivo, mouse; conditions: 20 mg/kg IP every other day for 26 days
Experimental: FIG. 7. Inhibition of SOD1 protein expression in the G93A-SOD1 mouse. GSK3B-I treatment was at 20 mg/kg IP every other day for 26 days. Mice were sacrificed and SOD1 measured in the indicated tissues. […] Error bars are SEM.
Initial testing was carried out in a small cohort (5-6 animals) of G93A-SOD1 mice (high level of mutant SOD1 expression). The drug was dosed at 20 mg/kg IP every other day for 26 days. Mice were sacrificed and SOD1 was measured by ELISA.

[9] = tested on: SOD1 expression; experiment: SOD1 expression in G93A-SOD1 transgenic mouse motor neurons; assay type: cell-based
Text: The compound decreases SOD1 expression in vitro in assays done in mouse fibroblasts (FIG. 3) and mouse motor neurons (FIG. 7).
The mechanism of inhibition is largely due to a decrease in the G93A-SOD1 mRNA. The transgene expressed in the mouse uses the native human promoter. Thus, therapy with these drugs in human subjects would also lead to a decrease in SOD1 mRNA in all tissues.

[10] = Solubility in dosing vehicle; assay type: physicochemical
Experimental: as §1

[11] = Fibroblast, Table 2, relative to control, read-out: Relative SOD1 expression 10 μM compound
[12] = Fibroblast, Table 5, read-out: Relative SOD1 Expression in Presence of Compound (10 μM)
[13] = 20 mg/kg intraperitoneal, 24 hr
[14] = brain, cyclodextrin carrier, read-out: Brain
[15] = serum, cyclodextrin carrier, read-out: Serum
[16] = spinal cord, cyclodextrin carrier, read-out: Spinal Cord

Compound: c1ccc(CSc2nnc(-c3ccncc3)o2)cc1 [NUCC-441]
Effect on SOD1 expression (in words) [1]: activates expression of SOD1
activity at 10 µM [1, 11]: 133%
activity at 10 µM [1, 12]: 133%

Compound: Ic1ccc(CSc2nnc(-c3ccncc3)o2)cc1 [NUCC-321]
activity at 10 µM [1, 11]: 69%
activity at 10 µM [1, 12]: 70.2%

Compound: CSc1nnc(-c2ccnc(NCc3ccccc3)c2)o1 [NUCC-0000472]
activity at 10 µM [1, 12]: 146%

Compound: O=[N+]([O-])c1ccccc1CSc1nnc(-c2ccncc2)o1 [NUCC-0000430]
activity at 10 µM [1, 12]: 101%

Compound: Cc1cc(-c2nnc(SCc3ccc(F)cc3)o2)ccn1 [NUCC-0000405]
activity at 10 µM [1, 12]: 95%

Compound: Brc1cccc(CSc2nnc(-c3ccncc3)o2)c1 [NUCC-318]
activity at 10 µM [1, 11]: 91%
activity at 10 µM [1, 12]: 90.3%

Compound: O=[N+]([O-])c1ccc(CSc2nnc(-c3ccncc3)o2)cc1 [NUCC-431]
activity at 10 µM [1, 11]: 102%
activity at 10 µM [1, 12]: 102%

Compound: O=c1c(C2=NC3C=CC=CC3N2)coc2ccc(Cl)cc12 (centres unmarked) [NUCC-0000406]
activity at 10 µM [1, 12]: 89.9%

Compound: O=[N+]([O-])c1cccc(CSc2nnc(-c3ccncc3)o2)c1 [NUCC-432]
Effect on SOD1 expression (in words) [1]: tended to cause an increase in SOD1 expression
activity at 10 µM [1, 11]: 117%
activity at 10 µM [1, 12]: 117%

Compound: Cc1ccc(CSc2nnc(-c3ccncc3)o2)cc1 [NUCC-436]
activity at 10 µM [1, 11]: 126%
activity at 10 µM [1, 12]: 126%

Compound: Cn1c(SCc2ccc(Br)cc2)nnc1-c1ccncc1 [NUCC-0000323]
activity at 10 µM [1, 12]: 103%

Compound: Cn1cc(C2=C(c3ccc(Cl)cc3Cl)C(=O)NC2=O)c2ccccc21 [SB216763, reference compound]
IC50 ([1]; Fibroblast, 48 hr treatment): 3 µM
Effect on SOD1 expression (in words) [1]: not more effective at decreasing SOD1 expression in vitro

Compound: c1cncc(CSc2nnc(-c3ccncc3)o2)c1 [NUCC-438]
Effect on SOD1 expression (in words) [1]: not significantly different from control
activity at 10 µM [1, 12]: 112%

Compound: CSc1nnc(-c2ccnc(NC3CCOCC3)c2)o1 [NUCC-0000473]
activity at 10 µM [1, 12]: 127%

Compound: Brc1ccc(CSc2nnc(-c3cccnc3)o2)cc1 [NUCC-322]
SOD1 expression, % of control ([1]; 10 μM): 68.6 % of control
activity at 10 µM [1, 12]: 68.6%

Compound: CSc1nnc(-c2ccnc(Nc3ccccc3)c2)o1 [NUCC-0000471]
activity at 10 µM [1, 12]: 106%

Compound: CCc1nc(N)nc(N)c1-c1ccc(Cl)cc1 [pyrimethamine]
Cell toxicity in vitro [2]: cell toxicity in the effective dose range

Compound: FC(F)(F)c1ccc(CSc2nnc(-c3ccncc3)o2)cc1 [NUCC-435]
Effect on SOD1 expression (in words) [1]: significant increase in SOD1 expression
activity at 10 µM [1, 11]: 157%
activity at 10 µM [1, 12]: 158%

Compound: Brc1ccc(CSc2nnc(-c3ccncc3)o2)cc1 [NUCC-320]
Effect on SOD1 expression (in words) [1]: no effect on SOD1 expression
activity at 10 µM [1, 11]: 103%
activity at 10 µM [1, 12]: 103%

Compound: N#Cc1ccc(-c2ccc(CSc3nnc(-c4ccc5c(c4)OCO5)o3)cc2)cc1 [NUCC-0000418]
activity at 10 µM [1, 12]: 114%

Compound: CCCCc1c(-c2ccc(O)cc2)[nH]c2nccnc12 [Aloisine, Aloisine A, reference compound]
Effect on SOD1 expression (in words) [1]: increased SOD1 expression
Effect on SOD1 expression (in words) ([1]; 48 hr treatment): Increases SOD1
Comments: other kinases inhibited [3]: Also inhibits CDK5,

Compound: Fc1ccc(CSc2nnc(-c3ccncc3)o2)cc1 [NUCC-324]
activity at 10 µM [1, 11]: 86%
activity at 10 µM [1, 12]: 86.3%

Compound: Clc1cccc(CSc2nnc(-c3ccncc3)o2)c1 [NUCC-439]
activity at 10 µM [1, 11]: 96%
activity at 10 µM [1, 12]: 95.9%

Compound: COc1cccc(CSc2nnc(-c3ccncc3)o2)c1 [NUCC-433]
Effect on SOD1 expression (in words) [1]: dose dependent reduction of SOD1 expression in vitro
Shape of dose-response curve for SOD1 expression [1]: flattened rather than upward curvature at higher concentration
activity at 10 µM [1, 11]: 50%
activity at 10 µM [1, 12]: 49.9%

Compound: O=C1Cc2c([nH]c3ccc(Br)cc23)-c2ccccc2N1 [Kenpaullone, reference compound]
IC50 ([1]; Fibroblast, 48 hr treatment): 10 µM
Effect on SOD1 expression (in words) [1]: only weakly decreased SOD1 expression
Comments: other kinases inhibited [3]: Also inhibits CDK5,

Compound: O=C1Nc2cc(Br)ccc2/C1=C1/Nc2ccccc2/C1=N\O [GSK3B-IX, reference compound]
Effect on SOD1 expression (in words) [1]: increased SOD1 expression

Compound: O=C(CCl)c1cc(Br)c(Br)s1 [GSK3B-VI, reference compound]
Effect on SOD1 expression (in words) [1]: inhibits SOD1 expression
IC50 ([1]; 48 hr treatment): 0.65 µM
Concentration at which cell toxicity is exhibited [4]: greater than 5 μM
IC50 [5]: 1 µM

Compound: c1cc(CSc2nnc(-c3ccncc3)o2)ccn1 [NUCC-437]
Effect on SOD1 expression (in words) [1]: not significantly different from control
activity at 10 µM [1, 12]: 90.3%

Compound: Fc1cccc(CSc2nnc(-c3ccncc3)o2)c1 [NUCC-319]
Effect on SOD1 expression (in words) [1]: significant increase in SOD1 expression
activity at 10 µM [1, 11]: 143%
activity at 10 µM [1, 12]: 144%

Concentration (μM), Brain ([7]; 20 mg/kg intraperitoneal, 1 hr): 0.944 µM
Concentration (μM), Serum ([7]; 20 mg/kg intraperitoneal, 1 hr): 0.672 µM
Concentration (μM), Spinal cord ([7]; 20 mg/kg intraperitoneal, 1 hr): 4.00 µM
Concentration (μM), Brain [7, 13]: 0.077 µM
Concentration (μM), Serum [7, 13]: 0.073 µM
Concentration (μM), Spinal cord [7, 13]: 0.855 µM
Compound: Ic1cccc(CSc2nnc(-c3ccncc3)o2)c1 [GSK3B-II, reference compound]
Effect on SOD1 expression (in words) [1]: most potent at inhibiting G93A-SOD1 expression; also recorded: dose dependent reduction of SOD1 expression in vitro
Shape of dose-response curve for SOD1 expression [1]: biphasic dose-response curve
IC50 ([1]; 48 hr treatment): 0.625 µM
Effect on SOD1 mRNA [6]: reducing the level of SOD1 mRNA
CNS distribution and persistence (in words) ([7]; 20 mg/kg intraperitoneal): rapidly distributes into the brain and spinal cord; also recorded: still detectable after 24 hrs in the brain and spinal cord
Change of SOD1 protein in spinal cord, cerebellum, brain stem, cerebral cortex [8]: significant decreases in SOD1 were measured; also recorded: SOD1 protein is reduced
Change of SOD1 protein in spinal cord, cerebellum, brain stem, cerebral cortex ([8]; listed as GSK3B-I): change in expression was significant
Effect on SOD1 expression in motor neurons [9]: inhibits SOD1 expression

Compound: CSc1nnc(-c2ccncc2-c2ccc(F)cc2)o1 [NUCC-0000404]
activity at 10 µM [1, 12]: 94.9%

concentration at 2 h [7, 14]: 29 nM
concentration at 4 h [7, 14]: 47 nM
concentration at 2 h [7, 15]: 153 nM
concentration at 4 h [7, 15]: 334 nM
concentration at 24 h ([7]; serum, cyclodextrin carrier, 24 hr, read-out: Serum): 123 nM
concentration at 2 h [7, 16]: 57 nM
concentration at 4 h [7, 16]: 162 nM
concentration at 24 h ([7]; spinal cord, cyclodextrin carrier, 24 hr, read-out: Spinal Cord): 113 nM
Solubility in standard 1-2% DMSO vehicle ([10]; 1-2% DMSO vehicle): poor
solubility ([10]; aqueous with cosolvent or surfactant or cyclodextrin, Sulfo-butylether beta-cyclodextrin (Captisol) in water, read-out: Solubility in water with cyclodextrin carrier): 2000 µg/mL (≈ 6.68 mM)
Compound: COc1ccc(CSc2nnc(-c3ccncc3)o2)cc1 [NUCC-434]
Effect on SOD1 expression (in words) [1]: dose dependent reduction of SOD1 expression in vitro
Shape of dose-response curve for SOD1 expression [1]: flattened rather than upward curvature at higher concentration
activity at 10 µM [1, 11]: 47%
activity at 10 µM [1, 12]: 47.4%
CNS distribution and persistence (in words) ([7]; 10 mg/kg, cyclodextrin carrier): entered the CNS and persisted for 24 hr in the spinal cord

Compound: Clc1ccc(CSc2nnc(-c3ccncc3)o2)cc1 [NUCC-440]
Effect on SOD1 expression (in words) [1]: tended to cause an increase in SOD1 expression
activity at 10 µM [1, 11]: 123%
activity at 10 µM [1, 12]: 123%
